Experimental data taken from article PMC6968633, “Synthesis, antibacterial and anticancer activity, and docking study of aminoguanidines containing an alkynyl moiety” (Journal of Enzyme Inhibition and Medicinal Chemistry, 2019).
In brackets after ≈: the same amount, converted by molar mass.

Legend:
[1] = system: Methicillin-resistant S. aureus ATCC 33591; assay: Bactericidal time-kill assay; type: cell-based, Staphylococcus aureus; settings: MRSA; for nature of antibacterial effect in time-kill assay: 1 × MIC and 2 × MIC
Method: Methicillin-resistant S. aureus ATCC 33591 grown in MHB was used to determine time-kill kinetics. Bacterial suspensions (10^5 CFU/mL) containing test compounds (norflocaxin, compound 3g) at final concentrations of 1 × MIC and 2 × MIC were incubated at 37 °C with shaking. Aliquots (10 μL) were removed from the cultures after 0, 0.5, 1, 2, 3, 4, 6, 8 and 12 h, serially diluted 1000-fold in nutrient solution, and plated onto sterile Mueller-Hinton agar medium. Plates were then incubated for 24 h at 37 °C, the number of CFU was counted, and the total bacterial log10 CFU/mL was determined.

[2] = system: Escherichia coli CMCC 44568; assay: Bacterial resistance development, serial passaging at sub-MIC; type: cell-based; settings: E. coli, passaging at MIC/2
Method: (§1) To evaluate the propensity for developing bacterial resistance, one of the compounds with high antibacterial activity (3g) was used. The initial MIC values of 3g were determined against bacteria Staphylococcus aureus CMCC 25923 and Escherichia coli CMCC 44568, using norfloxacin and colistin, respectively, as antibiotic controls. Subsequently, serial passaging was initiated by transferring bacterial suspension grown at the sub-MIC of the compound/antibiotics (MIC/2) to a new plate and subjecting it to another assay to determine the (new) MIC. After 22 h incubation, cells grown at the sub-MIC of the test compound/antibiotics were once again transferred and the MIC determined. The process was repeated for 20 or 30 passages for S. aureus and E. coli, respectively. The MIC for 3g, norfloxacin and colistin was plotted as a function of time in days (number of passages) to determine the propensity of bacterial resistance development.
(§2) Bacterial resistance against most antibiotics presents a major problem of current times. Therefore, it is crucial to evaluate the potential emergence of bacterial resistance against these biocides. […] Norfloxacin, an antibiotic generally used to treat the Gram-positive infections, was used as a positive control for S. aureus, whereas colistin, a lipopeptide antibiotic active against Gram-negative bacteria, was used as a positive control for E. coli. These antibacterial agents were repeatedly challenged against bacteria at their sub-MIC values to allow bacteria to develop resistance. Resistance is usually defined as a > 4-fold increase in the original MIC[32].

[3] = system: Staphylococcus aureus CMCC 25923; assay: as above; type: cell-based; settings: S. aureus, passaging at MIC/2, 20 passages
Method: as §1, §2

[4] = system: Pseudomonas aeruginosa CMCC 27853; assay: Antibacterial MIC, serial dilution; type: cell-based; settings: Pseudomonas aeruginosa, CMCC27853; P. aeruginosa CMCC 27853, 24 h, 37 °C; read-out: MIC
Method: (§3) Test bacteria were grown to mid-log phase in Mueller–Hinton broth (MHB) or Tryptone Soya Broth (TSB) and diluted 1000-fold in the same medium. Bacteria (10^5 CFU/mL) were inoculated into MHB or TSB and dispensed at 0.2 ml/well into a 96-well microtiter plate. As positive controls, gatifloxacin, moxifloxacin, norfloxacin, oxacillin, and penicillin were used. […] Bacterial growth was determined by measuring the absorption at 630 nm using a microplate reader. All experiments were carried out three times.
(§4) The evaluation of antibacterial activity of all compounds (3a–3j and 6a–6k) was performed by a serial dilution method to determine the MIC against a panel of pathogens comprising five Gram-positive strains (S. aureus (CMCC(B) 26003 and CMCC 25923), Streptococcus mutans BNCC 336931, Enterococcus faecalis CMCC 29212, and Bacillus subtilis CMCC 63501), four Gram-negative strains (E. coli (CMCC 25922 and CMCC 44568) and P. aeruginosa (CMCC 27853 and CMCC 10104)), as well as three methicillin-resistant clinical isolates (S. aureus ATCC 43300 and ATCC 33591, P. aeruginosa ATCC BAA-2111). The results are described in Tables 1 and 2. Gatifloxacin, moxifloxacin, norfloxacin, oxacillin, and penicillin were used as positive controls.

[5] = system: Bacillus subtilis CMCC 63501; assay: Antibacterial MIC, serial dilution; type: cell-based; settings: Bacillus subtilis, CMCC63501; B. subtilis CMCC 63501, 24 h, 37 °C; read-out: MIC
Method: as §3, §4

[6] = system: Escherichia coli CMCC 44568; assay: Antibacterial MIC, serial dilution; type: cell-based; settings: Escherichia coli, CMCC44568; E. coli CMCC 44568, 24 h, 37 °C; read-out: MIC
Method: as §3, §4

[7] = system: Pseudomonas aeruginosa CMCC 10104; assay: Antibacterial MIC, serial dilution; type: cell-based; settings: Pseudomonas aeruginosa, CMCC10104; P. aeruginosa CMCC 10104, 24 h, 37 °C; read-out: MIC
Method: as §3, §4

[8] = system: Escherichia coli CMCC 25922; assay: Antibacterial MIC, serial dilution; type: cell-based; settings: Escherichia coli, CMCC25922; E. coli CMCC 25922, 24 h, 37 °C; read-out: MIC
Method: as §3, §4

[9] = system: Staphylococcus aureus CMCC(B)26003; assay: Antibacterial MIC, serial dilution; type: cell-based; settings: Staphylococcus aureus; S. aureus CMCC(B)26003, 24 h, 37 °C; read-out: MIC
Method: as §3, §4

[10] = system: Streptococcus mutans BNCC 336931; assay: Antibacterial MIC, serial dilution; type: cell-based; settings: Streptococcus mutans, BNCC336931; S. mutans BNCC 336931, 24 h, 37 °C; read-out: MIC
Method: as §3, §4

[11] = system: Enterococcus faecalis CMCC 29212; assay: Antibacterial MIC, serial dilution; type: cell-based; settings: Enterococcus faecalis, CMCC29212; E. faecalis CMCC 29212, 24 h, 37 °C; read-out: MIC
Method: as §3, §4

[12] = system: A549; assay: Cytotoxicity, CCK-8 assay; type: cell-based; settings: Homo sapiens, A549 lung cancer cells, 48 h
Method: (§5) A lung cancer cell line (A549), gastric cancer cell line (SGC7901) and human hepatocytes (L02) were used to test the anticancer activity and cytotoxicity of the new compounds. 5-Fluorouracil (5-FU) was used as the positive control against cancer cell lines. The A549, SGC7901 and L02 cells were grown in Dulbecco’s modified Eagle’s medium (DMEM) supplemented with 10% foetal bovine serum (FBS) and antibiotics (100 U/mL penicillin-streptomycin). Cells at 80–90% confluence were split by trypsin (0.25% in PBS; pH 7.4), and the medium was changed at 24 h intervals. The cells were cultured at 37 °C in a 5% CO2 incubator. The cells were passaged three times, then approximately 1 × 10^4 cells were seeded into each well of a 96-well plate and allowed to incubate to allow attachment of the cells to the surface. After 24 h, the medium was replaced with DMEM supplemented with 10% FBS containing various concentrations (0.1, 0.3, 1, 3, 10, and 30 μg/mL) of test compounds. Each concentration was tested in triplicate. After 48 h treatment, 20 µL of CCK-8 solution was added to each well and the optical density measured at 450 nm after 3 h using a microplate reader. The IC50 values were defined as the concentrations inhibiting 50% of cell growth.

[13] = system: SGC7901; assay: Cytotoxicity, CCK-8 assay; type: cell-based; settings: Homo sapiens, SGC-7901, SGC7901 gastric cancer cells, 48 h
Method: as §5

[14] = system: Staphyiococcus aureus CMCC 25923; assay: Antibacterial MIC, serial dilution; type: cell-based, Staphylococcus aureus; settings: Staphylococcus aureus, CMCC25923; S. aureus CMCC 25923, 24 h, 37 °C; read-out: MIC
Method: as §3, §4

[15] = system: Staphylococcus aureus ATCC 43300; assay: Antibacterial MIC, multidrug-resistant clinical isolate; type: cell-based; settings: Staphylococcus aureus, ATCC43300; multidrug-resistant S. aureus ATCC 43300; read-out: MIC
Method: as §3, §4

[16] = system: Staphylococcus aureus ATCC 33591; assay: as above; type: cell-based; settings: Staphylococcus aureus, ATCC33591; multidrug-resistant S. aureus ATCC 33591; read-out: MIC
Method: as §3, §4

[17] = system: Pseudomonas aeruginosa ATCC BAA-2111; assay: as above; type: cell-based; settings: ATCCBAA2111, multidrug-resistant P. aeruginosa ATCC BAA-2111
Method: as §3, §4

[18] = system: L02; assay: Cytotoxicity, CCK-8 assay, normal cell line; type: cell-based; settings: L02 normal human hepatocytes, 48 h
Method: as §5

Structure (SMILES)	nature of antibacterial effect in time-kill assay [1]	increase in MIC on serial passaging [3]	MIC [4] [µg/mL]	MIC [5] [µg/mL]	MIC [6] [µg/mL]	MIC [7] [µg/mL]	MIC [8] [µg/mL]	MIC [9] [µg/mL]	MIC [10] [µg/mL]	MIC [11] [µg/mL]	MIC [14] [µg/mL]	MIC [15] [µg/mL]	MIC [16] [µg/mL]	MIC [17] [µg/mL]	other results
N=C(N)NN=Cc1ccc(C#Cc2ccc(Cl)cc2)cc1 [Compound 3g, 2-(4-((4-Chlorophenyl)ethynyl)benzylidene)hydrazine-1-carboximidamide]	rapidly bactericidal	little change	> 128	0.25 (≈ 0.842 µM)	2 (≈ 6.74 µM)	1 (≈ 3.37 µM)	2 (≈ 6.74 µM)	0.5 (≈ 1.68 µM)	0.5 (≈ 1.68 µM)	0.5 (≈ 1.68 µM)	0.5 (≈ 1.68 µM)	1 (≈ 3.37 µM)	0.5 (≈ 1.68 µM)	4 (≈ 13.5 µM)	persistence of bactericidal activity ([1]; 2 × MIC): 12 h; reduction of bacterial count ([1]; 2 × MIC, after 2 h, start 5.5 log10 CFU/mL): > 5 log10 CFU/mL; increase in MIC on serial passaging [2]: little change; IC50 [12]: 4.42 µg/mL (≈ 14.9 µM); IC50 [13]: 1.01 µg/mL (≈ 3.4 µM); melting point: 232 to 234 °C; IC50 [18]: 20.9 µg/mL (≈ 70.3 µM)
CCn1cc(C(=O)O)c(=O)c2cc(F)c(N3CCNCC3)cc21 [Norfloxacin, reference compound]	bacteriostatic, not bactericidal	approximately 32 fold	2 (≈ 6.26 µM)	2 (≈ 6.26 µM)	0.125 (≈ 0.391 µM)	4 (≈ 12.5 µM)	0.125 (≈ 0.391 µM)	0.125 (≈ 0.391 µM)	16 (≈ 50.1 µM)	1 (≈ 3.13 µM)	0.125 (≈ 0.391 µM)	0.5 (≈ 1.57 µM)	0.25 (≈ 0.783 µM)	1 (≈ 3.13 µM)	
